Measurements: patent US9302991B2, “Arylamide derivatives as TTX-S blockers” (RaQualia Pharma Inc., priority 2010, dated 2016)
pIC50: −log10 of the molar value.

How the values were obtained:
human Nav1.3 channels = molecular target: T1, human Nav1.3 channels (Homo sapiens, UniProt Q9NY46); assay: FRET assay, human Nav1.3 (EFS on FDSS); assay type: cell-based; conditions: HEK293 cells expressing human Nav1.3, read-out: IC50 against Nav1.3
T1 construct: expressed in transfected cells; host or cells: HEK293
T1 sequence (Q9NY46 whole entry): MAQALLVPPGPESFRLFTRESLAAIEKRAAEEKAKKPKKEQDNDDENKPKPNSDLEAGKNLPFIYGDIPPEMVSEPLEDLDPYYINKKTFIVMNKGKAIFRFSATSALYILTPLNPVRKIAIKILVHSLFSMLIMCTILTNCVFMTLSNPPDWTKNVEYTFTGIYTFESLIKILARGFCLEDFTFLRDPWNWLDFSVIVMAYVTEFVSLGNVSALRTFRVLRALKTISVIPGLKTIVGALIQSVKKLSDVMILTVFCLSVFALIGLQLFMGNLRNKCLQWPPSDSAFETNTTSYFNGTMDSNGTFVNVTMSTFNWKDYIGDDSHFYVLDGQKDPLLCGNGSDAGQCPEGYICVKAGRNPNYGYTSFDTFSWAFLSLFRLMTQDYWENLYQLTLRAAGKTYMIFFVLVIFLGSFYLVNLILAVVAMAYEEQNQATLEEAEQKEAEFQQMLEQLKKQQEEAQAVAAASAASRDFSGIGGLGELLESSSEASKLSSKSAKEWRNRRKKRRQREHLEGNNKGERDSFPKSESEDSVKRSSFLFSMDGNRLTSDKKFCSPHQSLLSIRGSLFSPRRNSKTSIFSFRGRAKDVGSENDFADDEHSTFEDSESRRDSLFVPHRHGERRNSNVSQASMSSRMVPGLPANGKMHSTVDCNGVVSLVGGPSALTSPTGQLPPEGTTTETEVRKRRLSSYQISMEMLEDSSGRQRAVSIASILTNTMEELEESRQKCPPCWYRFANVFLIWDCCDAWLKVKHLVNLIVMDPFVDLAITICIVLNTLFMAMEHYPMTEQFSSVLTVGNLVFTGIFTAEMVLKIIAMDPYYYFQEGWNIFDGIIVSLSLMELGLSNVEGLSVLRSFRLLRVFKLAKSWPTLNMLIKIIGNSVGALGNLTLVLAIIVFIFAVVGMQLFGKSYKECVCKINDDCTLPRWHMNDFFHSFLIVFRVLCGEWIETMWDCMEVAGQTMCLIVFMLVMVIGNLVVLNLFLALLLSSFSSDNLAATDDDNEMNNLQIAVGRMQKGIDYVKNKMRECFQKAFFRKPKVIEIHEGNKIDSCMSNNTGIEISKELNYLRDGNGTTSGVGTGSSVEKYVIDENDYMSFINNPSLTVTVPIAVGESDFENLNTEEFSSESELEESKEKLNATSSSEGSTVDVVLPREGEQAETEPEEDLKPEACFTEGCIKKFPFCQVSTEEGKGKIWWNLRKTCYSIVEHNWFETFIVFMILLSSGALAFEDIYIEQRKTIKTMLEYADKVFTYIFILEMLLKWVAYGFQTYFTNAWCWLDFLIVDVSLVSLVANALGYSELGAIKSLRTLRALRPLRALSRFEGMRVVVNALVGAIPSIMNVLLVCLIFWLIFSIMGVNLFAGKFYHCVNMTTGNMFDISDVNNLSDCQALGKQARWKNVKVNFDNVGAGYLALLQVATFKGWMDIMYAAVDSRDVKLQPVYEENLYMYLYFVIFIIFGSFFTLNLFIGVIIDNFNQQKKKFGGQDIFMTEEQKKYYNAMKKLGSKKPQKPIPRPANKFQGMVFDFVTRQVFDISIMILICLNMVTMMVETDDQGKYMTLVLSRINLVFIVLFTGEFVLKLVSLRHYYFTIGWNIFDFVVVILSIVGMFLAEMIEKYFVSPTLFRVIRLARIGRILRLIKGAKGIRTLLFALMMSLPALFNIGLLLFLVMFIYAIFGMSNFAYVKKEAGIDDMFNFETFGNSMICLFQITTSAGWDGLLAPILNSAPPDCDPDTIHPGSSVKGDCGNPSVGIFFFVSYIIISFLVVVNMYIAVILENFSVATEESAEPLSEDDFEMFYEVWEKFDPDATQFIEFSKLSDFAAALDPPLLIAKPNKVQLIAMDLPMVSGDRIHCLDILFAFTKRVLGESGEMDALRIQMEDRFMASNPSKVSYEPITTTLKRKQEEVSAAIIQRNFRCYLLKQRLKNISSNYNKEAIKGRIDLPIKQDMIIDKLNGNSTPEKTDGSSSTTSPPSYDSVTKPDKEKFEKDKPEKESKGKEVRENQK
How it was run: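 HEK293 cells expressing the channel, loaded with 10 microM CC2-DMPE then 15 microM DiSBAC2(3) plus 0.555 mM VABSC-1 in pH 7.4 HEPES buffer at room temperature. Membrane potential changes evoked by electrical field stimulation after compound addition; IC50 from 440 nm-normalized FRET ratios.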

human Nav1.7 channels = molecular target: T2, human Nav1.7 channels (Homo sapiens, UniProt Q15858); assay: FRET assay, human Nav1.7 (EFS on FDSS); assay type: cell-based; conditions: CHO cells expressing human Nav1.7, read-out: IC50 against Nav1.7
T2 construct: expressed in transfected cells; host or cells: CHO
T2 sequence (Q15858 whole entry): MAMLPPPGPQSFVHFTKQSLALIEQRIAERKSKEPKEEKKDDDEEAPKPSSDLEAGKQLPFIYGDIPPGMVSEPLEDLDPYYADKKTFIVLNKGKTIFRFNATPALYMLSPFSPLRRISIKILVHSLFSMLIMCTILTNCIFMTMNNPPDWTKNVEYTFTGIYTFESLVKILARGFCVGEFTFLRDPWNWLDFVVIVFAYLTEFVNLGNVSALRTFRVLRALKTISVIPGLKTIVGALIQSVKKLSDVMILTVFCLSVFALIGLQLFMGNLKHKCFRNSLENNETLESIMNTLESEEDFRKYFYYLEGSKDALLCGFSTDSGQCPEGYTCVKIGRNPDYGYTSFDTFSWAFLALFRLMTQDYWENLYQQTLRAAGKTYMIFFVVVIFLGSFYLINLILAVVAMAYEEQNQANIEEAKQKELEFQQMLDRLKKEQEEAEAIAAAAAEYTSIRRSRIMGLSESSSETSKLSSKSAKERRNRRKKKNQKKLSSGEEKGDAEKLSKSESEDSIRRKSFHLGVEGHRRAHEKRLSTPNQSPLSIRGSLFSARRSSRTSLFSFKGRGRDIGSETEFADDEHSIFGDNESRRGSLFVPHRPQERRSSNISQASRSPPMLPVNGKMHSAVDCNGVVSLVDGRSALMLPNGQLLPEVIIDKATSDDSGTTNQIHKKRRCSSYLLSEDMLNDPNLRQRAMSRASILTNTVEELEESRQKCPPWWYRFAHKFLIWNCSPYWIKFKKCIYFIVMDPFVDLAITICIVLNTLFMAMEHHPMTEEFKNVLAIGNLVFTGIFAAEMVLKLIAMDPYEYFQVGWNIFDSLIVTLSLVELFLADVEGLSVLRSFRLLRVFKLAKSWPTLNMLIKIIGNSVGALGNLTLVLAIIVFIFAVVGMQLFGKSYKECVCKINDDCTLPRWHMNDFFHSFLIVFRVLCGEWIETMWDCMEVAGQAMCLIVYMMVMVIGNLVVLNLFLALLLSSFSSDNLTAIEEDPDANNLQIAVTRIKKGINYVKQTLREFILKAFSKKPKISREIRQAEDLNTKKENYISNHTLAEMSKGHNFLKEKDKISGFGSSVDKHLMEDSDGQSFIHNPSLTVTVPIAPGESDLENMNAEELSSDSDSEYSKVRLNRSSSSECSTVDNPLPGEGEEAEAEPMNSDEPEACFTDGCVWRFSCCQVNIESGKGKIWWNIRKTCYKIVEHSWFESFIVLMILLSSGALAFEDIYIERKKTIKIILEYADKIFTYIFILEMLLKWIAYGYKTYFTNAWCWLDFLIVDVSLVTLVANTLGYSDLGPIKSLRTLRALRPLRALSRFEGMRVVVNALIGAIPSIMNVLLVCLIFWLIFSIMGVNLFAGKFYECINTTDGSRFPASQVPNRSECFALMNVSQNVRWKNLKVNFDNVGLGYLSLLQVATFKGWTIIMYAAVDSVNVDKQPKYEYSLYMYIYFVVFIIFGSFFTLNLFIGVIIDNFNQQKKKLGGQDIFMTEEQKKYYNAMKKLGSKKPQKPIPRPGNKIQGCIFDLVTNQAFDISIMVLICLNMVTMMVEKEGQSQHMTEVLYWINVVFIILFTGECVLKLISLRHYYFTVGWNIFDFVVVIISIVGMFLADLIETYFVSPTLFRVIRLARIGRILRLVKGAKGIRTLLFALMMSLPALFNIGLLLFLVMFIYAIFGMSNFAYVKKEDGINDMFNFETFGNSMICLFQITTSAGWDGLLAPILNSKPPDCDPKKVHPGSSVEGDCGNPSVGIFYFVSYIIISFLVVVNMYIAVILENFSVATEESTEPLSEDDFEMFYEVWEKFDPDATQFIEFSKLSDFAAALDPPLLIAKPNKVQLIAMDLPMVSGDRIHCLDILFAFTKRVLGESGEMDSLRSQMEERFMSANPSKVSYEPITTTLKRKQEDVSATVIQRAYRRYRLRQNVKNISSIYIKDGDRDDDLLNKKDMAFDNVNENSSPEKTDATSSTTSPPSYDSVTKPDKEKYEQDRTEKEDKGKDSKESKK
How it was run: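 IC50 was derived from normalized 440 nm fluorescence ratios of the EFS-evoked membrane-potential response read on FDSS. Recombinant CHO cells were sequentially dye-loaded with coumarin/oxonol FRET pair at room temperature in pH 7.4 buffer before compound addition.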

Structure (SMILES)	pIC50 (human Nav1.3 channels)	pIC50 (human Nav1.7 channels)
COc1nc(OCC(F)(F)F)ccc1CNC(=O)c1ccnc(NC(=O)C2CC2)c1 [Example 147, 2-(cyclopropanecarboxamido)-N-((2-methoxy-6-(2,2,2-trifluoroethoxy)pyridin-3-yl)methyl)isonicotinamide]	> 6.00	> 6.00
Cc1cc(C(=O)NC(C)c2cnc(OCC(F)(F)F)c(C)c2)cc(NC(=O)C(C)C)n1 (single isomer, unassigned) [Example 520, 2-isobutyramido-6-methyl-N-(1-(5-methyl-6-(2,2,2-trifluoroethoxy)pyridin-3-yl)ethyl)isonicotinamide]	> 6.00	> 6.00
COc1cc(CNC(=O)c2cc(C)nc(NC(=O)C(C)C)n2)cnc1OCC(F)(F)F [Example 443, 2-isobutyramido-N-((5-methoxy-6-(2,2,2-trifluoroethoxy)pyridin-3-yl)methyl)-6-methylpyrimidine-4-carboxamide]	> 6.00	> 6.00
CC(=O)Nc1cc(C(=O)NCc2cnc(OCC(F)(F)F)c(C)c2)cc(C)n1 [Example 371, 2-acetamido-6-methyl-N-((5-methyl-6-(2,2,2-trifluoroethoxy)pyridin-3-yl)methyl)isonicotinamide]	> 6.00	> 6.00
CCC(=O)Nc1cc(C(=O)NCc2cccc(OC(F)F)c2)cc(C)n1 [Example 129, N-(3-(difluoromethoxy)benzyl)-2-methyl-6-propionamidoisonicotinamide]	> 6.00	> 6.00
O=C(NCc1cccc(OC(F)(F)F)c1)c1ccnc(NC(=O)C2CC2)c1 [Example 524, 2-(cyclopropanecarboxamido)-N-(3-(trifluoromethoxy)benzyl)isonicotinamide]	> 6.00	> 6.00
CC(C)C(=O)Nc1cc(C(=O)NCc2ccc(OCC(F)(F)F)nc2)ccn1 [Example 169, 2-isobutyramido-N-((6-(2,2,2-trifluoroethoxy)pyridin-3-yl)methyl)isonicotinamide]	> 6.00	> 6.00
COc1nc(OCC(F)(F)F)ccc1CNC(=O)c1cc(C)nc(NC(C)=O)c1 [Example 241, 2-acetamido-N-((2-methoxy-6-(2,2,2-trifluoroethoxy)pyridin-3-yl)methyl)-6-methylisonicotinamide]	> 6.00	> 6.00
Cc1cc(C(=O)NC(C)c2cnc(OCC(F)(F)F)c(C)c2)nc(NC(=O)C2CC2)n1 (single isomer, unassigned) [Example 228, 2-(cyclopropanecarboxamido)-6-methyl-N-(1-(5-methyl-6-(2,2,2-trifluoroethoxy)pyridin-3-yl)ethyl)pyrimidine-4-carboxamide]	> 6.00	> 6.00
CCC(=O)Nc1cc(C(=O)NCc2ccc(OCC(F)(F)F)nc2OC)ccn1 [Example 149, N-((2-methoxy-6-(2,2,2-trifluoroethoxy)pyridin-3-yl)methyl)-2-propionamidoisonicotinamide]	> 6.00	> 6.00
CCC(=O)Nc1nccc(C(=O)NCc2cnc(OCC(F)(F)F)c(Cl)c2)n1 [Example 410, N-((5-chloro-6-(2,2,2-trifluoroethoxy)pyridin-3-yl)methyl)-2-propionamidopyrimidine-4-carboxamide]	> 6.00	> 6.00
Cc1ccc(OCC(F)(F)F)nc1CNC(=O)c1ccnc(NC(=O)C(C)C)c1 [Example 566, 2-isobutyramido-N-((3-methyl-6-(2,2,2-trifluoroethoxy)pyridin-2-yl)methyl)isonicotinamide]	> 6.00	–
CCNC(=O)c1cc(C(=O)NCc2ccc(OCC(F)(F)F)nc2OC)cc(C)n1 [Example 508, N2-ethyl-N4-((2-methoxy-6-(2,2,2-trifluoroethoxy)pyridin-3-yl)methyl)-6-methylpyridine-2,4-dicarboxamide]	> 6.00	–
CCC(=O)Nc1cc(C(=O)NCc2ccc(OCC(F)(F)C(F)(F)F)nc2)ccn1 [Example 639, N-((6-(2,2,3,3,3-pentafluoropropoxy)pyridin-3-yl)methyl)-2-propionamidoisonicotinamide]	> 6.00	–
O=C(NCc1cccc(OCC(F)(F)F)n1)c1ccnc(NC(=O)C2CC2)c1 [Example 465, 2-(cyclopropanecarboxamido)-N-((6-(2,2,2-trifluoroethoxy)pyridin-2-yl)methyl)isonicotinamide]	> 6.00	–
Cc1cc(CNC(=O)c2ccnc(NC(=O)C3CC3)c2)cc(OC(F)(F)F)c1 [Example 599, 2-(cyclopropanecarboxamido)-N-(3-methyl-5-(trifluoromethoxy)benzyl)isonicotinamide]	> 6.00	–

The next lines start with the values.

pIC50 (human Nav1.3 channels)	pIC50 (human Nav1.7 channels)	Structure (SMILES)
> 6.00	> 6.00	CCC(=O)Nc1cc(C(=O)NCc2cnc(OCC(F)(F)F)c(Br)c2)ccn1 [Example 895, N-((5-bromo-6-(2,2,2-trifluoroethoxy)pyridin-3-yl)methyl)-2-propionamidoisonicotinamide]
> 6.00	> 6.00	Cc1cc(CNC(=O)c2ccnc(NC(=O)C3CC3)c2)cnc1OCC(F)(F)C(F)F [Example 942, 2-(cyclopropanecarboxamido)-N-((5-methyl-6-(2,2,3,3-tetrafluoropropoxy)pyridin-3-yl)methyl)isonicotinamide]
> 6.00	> 6.00	Cc1cc(C(=O)NCc2ccc(OC(F)(F)F)c(C)c2)nc(NC(=O)C2CC2)n1 [Example 811, 2-(cyclopropanecarboxamido)-6-methyl-N-(3-methyl-4-(trifluoromethoxy)benzyl)pyrimidine-4-carboxamide]
> 6.00	> 6.00	Cc1cc(C(=O)NCc2ccc(OCC(F)(F)F)c(C)c2)nc(NC(=O)C2CC2)n1 [Example 780, 2-(cyclopropanecarboxamido)-6-methyl-N-(3-methyl-4-(2,2,2-trifluoroethoxy)benzyl)pyrimidine-4-carboxamide]
> 6.00	> 6.00	CC(=O)Nc1cc(C(=O)NCc2cnc(OCC(F)(F)F)c(Br)c2)ccn1 [Example 762, 2-acetamido-N-((5-bromo-6-(2,2,2-trifluoroethoxy)pyridin-3-yl)methyl)isonicotinamide]
> 6.00	> 6.00	Cc1cc(CNC(=O)c2ccnc(NC(=O)C3CC3)n2)ccc1OC(F)(F)F [Example 810, 2-(cyclopropanecarboxamido)-N-(3-methyl-4-(trifluoromethoxy)benzyl)pyrimidine-4-carboxamide]
> 6.00	> 6.00	CCCC(=O)Nc1cc(C(=O)NCc2cnc(OCC(F)F)c(C)c2)ccn1 [Example 757, 2-butyramido-N-((6-(2,2-difluoroethoxy)-5-methylpyridin-3-yl)methyl)isonicotinamide]
> 6.00	> 6.00	Cc1cc(C(=O)NCc2cc(C(F)(F)F)ccc2F)cc(NC(=O)C2CC2)n1 [Example 975, 2-(cyclopropanecarboxamido)-N-(2-fluoro-5-(trifluoromethyl)benzyl)-6-methylisonicotinamide]
> 6.00	> 6.00	Cc1cc(C(=O)NCc2cccc(OC(F)(F)F)c2)cc(NC(=O)CC2CC2)n1 [Example 962, 2-(2-cyclopropylacetamido)-6-methyl-N-(3-(trifluoromethoxy)benzyl)isonicotinamide]
> 6.00	> 6.00	Cc1cc(C(C)NC(=O)c2ccnc(NC(=O)C(C)C)c2)cnc1OCC(F)(F)C(F)F (single isomer, unassigned) [Example 904, 2-isobutyramido-N-(1-(5-methyl-6-(2,2,3,3-tetrafluoropropoxy)pyridin-3-yl)ethyl)isonicotinamide]
> 6.00	–	O=C(NCc1cc(C(F)(F)F)cc(C(F)(F)F)c1)c1ccnc(NC(=O)C2CC2)n1 [Example 736, N-(3,5-bis(trifluoromethyl)benzyl)-2-(cyclopropanecarboxamido)pyrimidine-4-carboxamide]
> 6.00	–	CC(=O)Nc1cc(C(=O)NCc2ccc(Cl)c(C(F)(F)F)c2)ccn1 [Example 682, 2-acetamido-N-(4-chloro-3-(trifluoromethyl)benzyl)isonicotinamide]
> 6.00	–	CCC(=O)Nc1cc(C(=O)NCc2cccc(OC(F)(F)F)c2F)ccn1 [Example 747, N-(2-fluoro-3-(trifluoromethoxy)benzyl)-2-propionamidoisonicotinamide]
> 6.00	–	CCc1cc(CNC(=O)c2cc(C)nc(NC(=O)C(C)C)c2)cnc1OCC(F)(F)F [Example 715, N-((5-ethyl-6-(2,2,2-trifluoroethoxy)pyridin-3-yl)methyl)-2-isobutyramido-6-methylisonicotinamide]
> 6.00	–	CCc1cc(CNC(=O)c2ccnc(NC(=O)C3CC3)c2)cnc1OCC(F)(F)F [Example 711, 2-(cyclopropanecarboxamido)-N-((5-ethyl-6-(2,2,2-trifluoroethoxy)pyridin-3-yl)methyl)isonicotinamide]
> 6.00	–	CCC(=O)Nc1cc(C(=O)NCc2cccc(OC(F)(F)F)c2F)cc(C)n1 [Example 749, N-(2-fluoro-3-(trifluoromethoxy)benzyl)-2-methyl-6-propionamidoisonicotinamide]
> 6.00	–	Cc1cc(CNC(=O)c2ccnc(NC(=O)C3CC3)c2)cnc1OCC(F)F [Example 739, 2-(cyclopropanecarboxamido)-N-((6-(2,2-difluoroethoxy)-5-methylpyridin-3-yl)methyl)isonicotinamide]
> 6.00	–	CC(=O)Nc1cc(C(=O)NCc2cccc(OC(F)(F)F)c2F)ccn1 [Example 746, 2-acetamido-N-(2-fluoro-3-(trifluoromethoxy)benzyl)isonicotinamide]
